Test results: PubChem BioAssay AID1159564 (GlaxoSmithKline (GSK), 2015)
Activity calls are given as the source filed them. The rule behind the calls is not given here.

System: L. donovani-infected THP-1 macrophages, intracellular amastigote imaging
Experiment: intracellular L. donovani amastigote inhibition, imaging, THP-1 host macrophages, host toxicity (AID 1159564)
[1] = measured here: THP-1 host cell toxicity
[2] = measured here: amastigotes per macrophage

Row | Compound | IC50 | IC50 [1] | IC50 [2]
1 | O=C(CSc1nnc2ccc(-c3ccc(F)cc3)nn12)N1CCCCC1 | > 50 µM (inactive) | 6.3 µM | > 50 µM
2 | O=C(CC1(O)C(=O)N(Cc2cccs2)c2ccc(Br)cc21)c1cccnc1 (configuration not stated) | > 50 µM (inactive) | 20 µM | > 50 µM
3 | CCOC(=O)c1noc(N)c1-c1ccccc1 | > 50 µM (inactive) | > 50 µM | > 50 µM
4 | CC(C)C[C@H](NC(=O)c1ccc(-c2ccccc2)o1)C(=O)NC1(C#N)CC1 | > 50 µM (inactive) | > 50 µM | 16 µM
5 | O=C(CN1CCN(S(=O)(=O)c2cccc([N+](=O)[O-])c2)CC1)Nc1ccc(Oc2ccccc2)cc1 | 7.9 µM | > 50 µM | 2 µM
6 | CCCCn1nnnc1CSc1nc(C)cc(C)c1C#N | 4 µM | > 50 µM | 3.2 µM
7 | NS(=O)(=O)c1ccc(CNC(=O)c2ccc([N+](=O)[O-])s2)cc1 | 25 µM | 40 µM | 13 µM
8 | CN1CCN(c2nc(-c3ccc(Cl)cc3)c3c(N)n(C)nc3n2)CC1 | 40 µM | 40 µM | 32 µM
9 | C=CCN(Cc1cccs1)C(=O)CSc1nnc(-c2ccc3c(c2)OCO3)o1 | 3.2 µM | > 50 µM | 1.3 µM
10 | COCc1cc(Nc2cccc(Cl)c2)nc(-c2ccccn2)n1 | 1.6 µM | > 50 µM | 0.63 µM
11 | O=C(CSc1ccc(F)cc1)N[C@@H](Cc1cnc[nH]1)C(=O)NCCc1ccccc1 | > 50 µM (inactive) | > 50 µM | > 50 µM
12 | Clc1ccc(OCCN2CCCCC2c2cccnc2)c(Cl)c1 (configuration not stated) | > 50 µM (inactive) | > 50 µM | 5 µM
13 | COc1cc(NC(=O)Nc2cccc(CNC(=O)OC3CCCCC3)c2)ccc1-c1cnco1 | > 50 µM (inactive) | 10 µM | 20 µM
14 | CCOc1ccc(Nc2ccc(S(=O)(=O)N3CCN(C)CC3)cc2[N+](=O)[O-])cc1OCC | 7.9 µM | 13 µM | 5 µM
15 | COc1cnc2ccc(=O)n(CCN3CCC(NC/C=C/c4cc(F)ccc4F)CC3)c2c1 | 5 µM | 40 µM | 2 µM
16 | Cc1c(C#N)c([N+](=O)[O-])nn1Cc1cccc(Cl)c1Cl | > 50 µM (inactive) | 16 µM | 16 µM
17 | COc1ccc(C(=O)[C@H]2C[C@@H]2CN(Cc2ccccn2)Cc2ccccn2)cc1 | 1.6 µM | > 50 µM | 1.3 µM

Row | Compound | IC50 | IC50 [1] | IC50 [2]
18 | CN(C)S(=O)(=O)c1ccc(-c2cnc(N)c(-c3nc4ccc(F)cc4[nH]3)c2)cc1 | 1.6 µM | 4 µM | 0.63 µM
19 | CCNc1cc(-c2ccccn2)nc(Nc2ccccc2)n1 | 0.79 µM | 20 µM | 0.63 µM
20 | Cc1ccccc1NS(=O)(=O)c1ccc2[nH]cc(C(=O)NC3CCCC(C)C3C)c(=O)c2c1 (configuration not stated) | 16 µM | 13 µM | 16 µM
21 | Cc1cc(NC(=O)CC2CCCCC2)n(-c2nc3c(c(=O)[nH]2)CCC3)n1 | 3.2 µM | 4 µM | 1.6 µM
22 | NC(=O)c1ccsc1NC(=O)c1ccc([N+](=O)[O-])s1 | 1.6 µM | 13 µM | 1.3 µM
23 | CCC(c1ccc(F)cc1)n1cncc1-c1cnn(C)c1 (configuration not stated) | > 50 µM (inactive) | > 50 µM | > 50 µM
24 | COc1ccc(-c2cc(C)no2)cc1S(=O)(=O)Nc1ccc(C)c(C)c1 | 2.5 µM | > 50 µM | 2 µM
25 | CC(CNS(=O)(=O)c1ccc(OC(F)F)cc1)c1ccc(NC(=O)c2ccncc2)cc1 (configuration not stated) | > 50 µM (inactive) | 16 µM | 5 µM
26 | O=c1cc(NCCCNCc2c[nH]c3ccc(Br)cc23)[nH]c2ccccc12 | > 50 µM (inactive) | > 50 µM | > 50 µM
27 | CCCCN(C(=O)c1ccc(NC(=O)C(C)C)cc1)c1ccccc1 | 5 µM | > 50 µM | 3.2 µM
28 | O=S(=O)(NCC(c1cccnc1)N1CCN(c2ccccc2F)CC1)c1ccc(F)cc1 (configuration not stated) | > 50 µM (inactive) | > 50 µM | 4 µM
29 | CNc1cc(C)nc(C2CN(C(=O)c3n[nH]c4ccccc34)CCO2)c1 (configuration not stated) | > 50 µM (inactive) | > 50 µM | > 50 µM
30 | COc1ccccc1-n1c(SCC(=O)Nc2ccc3c(c2)OCO3)nc2c(c1=O)SCC2 | 7.9 µM | > 50 µM | 5 µM
31 | CN(C)CCN(C)Cc1ccc(Cl)cc1NS(=O)(=O)c1ccc(Cl)c(Cl)c1 | 6.3 µM | 32 µM | 4 µM
32 | COc1ccc(-c2cnc(NC(=O)c3cc(-c4ccccn4)n[nH]3)n2C)cc1 | 1 µM | > 50 µM | 0.79 µM
33 | CS(=O)(=O)c1cccc(-c2cnc(N)c3c(-c4ccc(CO)cc4)csc23)c1 | 10 µM | > 50 µM | 7.9 µM
34 | CNc1cncc(C2CCCN2C(=O)Cc2coc3cc(C)ccc23)n1 (configuration not stated) | > 50 µM (inactive) | > 50 µM | 0.79 µM
